Article PMC10138506, “Design, Synthesis and Cytotoxic Activity of Novel Salicylaldehyde Hydrazones against Leukemia and Breast Cancer” (International Journal of Molecular Sciences, 2023)

Assays:
[1] = system: K-562 cells; assay: MTT-dye reduction cytotoxicity assay, K-562; type: cell-based, human; details: for IC50: Homo sapiens, K562, training set, some activities published before [26-32], the rest measured for this study, read-out: IC50 ± standard deviation, K-562; for Ligand Efficiency (LE) K-562: LE = pIC50/number of heavy atoms
Description: (§1) The research included four leukemic and three cancer human cell lines: HL-60 (acute myeloid leukemia), SKW-3 (KE-37 derivative) (T-cell leukemia), BV-173 and K-562 (chronic myeloid leukemia), MDA-MB-231 (ER-negative breast carcinoma), MCF-7 (ER-positive breast adenocarcinoma), and SaOS-2 (osteogenic sarcoma). The cells were provided from the German Collection of Microorganisms and Cell Cultures (DSMZ, Braunschweig, Germany). The solid tumor cell lines (MDA-MB-231, MCF-7, and SaOS-2) were incubated in 90% RPMI-1640 supplemented with 10% fetal bovine serum (FBS), non-essential amino acids, 1 mM sodium pyruvate, and […] human insulin as monolayer adherent cultures. The remaining cell lines were cultivated as a suspension culture in cell culture flasks at 37 °C in an incubator “BB 16-Function Line” Heraeus (Kendro, Hanau, Germany) with humidified atmosphere and 5% CO2 under standard conditions–RPMI-1640 liquid media supplemented with 10% FBS and 2 mM L-glutamine. The cells were kept in log phase by supplementing with fresh media after removing cell suspension aliquots two or three times each week.
(§2) At least eight wells were used for each concentration.

[2] = system: MCF-7 cells; assay: MTT-dye reduction cytotoxicity assay, MCF-7; type: cell-based, human; details: Homo sapiens, MCF7; training set; some activities published before [26-32], the rest measured for this study; read-out: IC50 ± standard deviation, MCF-7
Description: as §1, §2

[3] = system: BV-173 cells; assay: MTT-dye reduction cytotoxicity assay, BV-173; type: cell-based, human; details: Homo sapiens, BV-173; training set; some activities published before [26-32], the rest measured for this study; read-out: IC50 ± standard deviation, BV-173
Description: as §1, §2

[4] = system: SaOS-2 cells; assay: MTT-dye reduction cytotoxicity assay, SaOS-2; type: cell-based, human; details: Homo sapiens, SAOS-2; training set; some activities published before [26-32], the rest measured for this study; read-out: IC50 ± standard deviation, SaOS-2
Description: as §1, §2

[5] = system: KE-37 cells; assay: MTT-dye reduction cytotoxicity assay, KE-37; type: cell-based, human; details: Homo sapiens, KE-37; training set; some activities published before [26-32], the rest measured for this study; read-out: IC50 ± standard deviation, KE-37
Description: as §1, §2

[6] = system: MDA-MB-231 cells; assay: MTT-dye reduction cytotoxicity assay, MDA-MB-231; type: cell-based, human; details: Homo sapiens, MDA-MB-231; training set; some activities published before [26-32], the rest measured for this study; read-out: IC50 ± standard deviation, MDA-MB-231
Description: as §1, §2

[7] = system: HL-60 cells; assay: MTT-dye reduction cytotoxicity assay, HL-60; type: cell-based, human; details: Homo sapiens, HL-60; training set; some activities published before [26-32], the rest measured for this study; read-out: IC50 ± standard deviation, HL-60
Description: as §1, §2

melting point [°C] | SMILES | IC50 [1] [µM] | Ligand Efficiency (LE) K-562 [1] | IC50 [2] [µM] | IC50 [3] [µM] | IC50 [4] [µM] | IC50 [5] [µM] | IC50 [6] [µM] | IC50 [7] [µM]
232 to 233 | COc1ccc(C=NNC(=O)c2ccncc2)c(O)c1 (hydrate or solvate) [Compound 14, 4-methoxysalicylaldehyde isonicotinoylhydrazone] | – | – | – | – | – | – | – | –
– | COc1cccc(/C=N/NC(=O)c2ccccc2)c1O [Compound 1] | 27 ± 2.7 | 0.228 | 22.5 ± 5.4 | 20.8 ± 4.2 | 25.5 ± 6.2 | 9.8 ± 3.1 | 25.3 ± 2.7 | 11.3 ± 2.6
– | COc1cccc(/C=N/NC(=O)c2ccc(O)cc2)c1O [Compound 2] | 14.3 ± 2.9 | 0.231 | 19.7 ± 2.2 | 7.8 ± 2 | 19.2 ± 3.1 | 7.6 ± 2.1 | 24.2 ± 3.8 | 9.2 ± 2.4
– | COc1cccc(/C=N/NC(=O)c2ccncc2)c1O [Compound 3] | 8.7 ± 2 | 0.253 | 11.7 ± 2.4 | 3.7 ± 1.1 | 11.9 ± 3.2 | 3.3 ± 1.2 | 16.4 ± 2 | 2.7 ± 0.9
– | O=C(N/N=C/c1cc(Br)ccc1O)c1ccc(O)cc1 [Compound 4] | 2.83 ± 0.3 | 0.277 | 8.88 ± 2.7 | – | 50 ± 5.7 | 3 ± 0.5 | 20.1 ± 3.9 | 3.14 ± 1.1
– | O=C(N/N=C/c1cc(Br)ccc1O)c1ccncc1 [Compound 5] | 0.14 ± 0.09 | 0.360 | 0.26 ± 0.03 | 0.63 ± 0.2 | 146 ± 8.9 | 2.53 ± 1 | 38.4 ± 2 | 4.13 ± 1.2
– | O=C(N/N=C/c1cc([N+](=O)[O-])ccc1O)c1ccccc1 [Compound 6] | 7.94 ± 2.3 | 0.243 | 0.25 ± 0.03 | 2.39 ± 0.3 | 41.9 ± 5.1 | 6.38 ± 0.2 | 2.8 ± 2.7 | 5.64 ± 1.1
– | O=C(N/N=C/c1cc([N+](=O)[O-])ccc1O)c1ccc(O)cc1 [Compound 7] | > 200 | – | 4.95 ± 0.06 | 7.62 ± 1 | 199 ± 12 | 19.9 ± 2.2 | > 200 | 14.5 ± 2.1
